These results are taken from article PMC11150261, “Evaluation of antibacterial, cytotoxicity, and apoptosis activity of novel chromene-sulfonamide hybrids synthesized under solvent-free conditions and 3D-QSAR modeling studies” (Scientific Reports, 2024).

Common to all, as to assay type: cell-based
One data set concerns S. aureus ATCC 25923. As to the kind of experiment: Broth microdilution MIC. As to conditions: for MIC: Staphylococcus aureus, ATCC25923. On the procedure: (§1) A broth microdilution method was utilized to explore the minimum inhibitory concentrations (MIC) of all the newly synthesized compounds against E. coli ATCC 25922 and S. aureus ATCC 25923. Test compounds were prepared using dimethyl sulfoxide (DMSO) as a stock solution, followed by serial dilutions in Mueller Hinton broth containing up to one percent DMSO. At the end, a diluted bacterial suspension from a 0.5 McFarland tube was added to all the wells (the final volume of each well was 1 × 10^5 CFU/ml). In the growth control, a culture medium with bacteria was used as a positive control, and a culture medium without bacteria was used as a negative control (sterility control). The MIC was the lowest concentration of the synthesized compounds that produced no growth on the plate. Sulfisoxazole, functioning as a sulfonamide antibiotic, and gentamicin were employed in a comparative analysis of antibacterial activity, cytotoxicity, and apoptosis assessment.

Another data set concerns E. coli ATCC 25922. As to the kind of experiment: Broth microdilution MIC. As to conditions: for MIC: Escherichia coli, ATCC25922. On the procedure: as §1
(In general: In broth dilution the organism is exposed to a series of concentrations in liquid medium.)

For data set [1], the system named is fibroblast L929 cell line. As to the kind of experiment: Apoptosis Annexin V binding assay (flow cytometry). The settings on record: L929 cells, 24 h, IC50 concentration of each compound. The protocol:
(§2) To detect apoptosis, the Annexin V binding assay was used. The assay was performed according to the manufacturer's instructions using a FITC Annexin V Apoptosis Detection Kit with PI from BioLegend® (San Diego, California). To conduct this test, the fibroblast L929 cell line (Pasteur Institute, Tehran, Iran) was treated with various concentrations of the newly synthesized compounds and then incubated for 24 h at 37 °C with 5% CO2. Subsequently, each well's supernatant was removed and the cells were washed with PBS. Each well was then filled with 500 μl of Annexin-binding buffer (10 mM HEPES, 140 mM NaCl, and 2.5 mM CaCl2, pH 7.4) and 10 μl of Annexin V and PI. For 15 min, the plates were incubated at room temperature and kept away from light. After incubation, using a BD FACSCalibur flow cytometer (Biosciences, San Jose, CA, USA), the cells were examined after incubation. FlowJo software (version 10.5.3, TreeStar Incorporated, Ashland, OR) was used to analyze flow cytometry data.
(In general: A flow cytometer gives signals particle by particle.)

Data set [2] in a line: Apoptosis Annexin V binding assay (flow cytometry). The settings on record: mouse, L929 fibroblast cells; L929, IC50 concentration, Annexin V-FITC/PI. The protocol:
as §2

Another data set concerns fibroblast L929 cells. The data set can be described thus: Cytotoxicity assay by MTT. As to conditions: Mus musculus, fibroblast L929 cell line, 24 h. The protocol:
MTT was applied to evaluate the cytotoxicity of the newly synthesized compounds against fibroblast L929 cells (Pasteur Institute, Tehran, Iran). Briefly, 100 μl of cell suspension (1 × 10^4 cells/well) in RPMI 1640 medium, as seeded in 96-well microplates and incubated for 24 h (37 °C, 5% CO2 air humidified). After removing the old media, 100 µl of each of the newly synthesized compounds was added to each well at different concentrations. The plates were incubated for another 24 h in the same condition. To determine the positive and negative controls, doxorubicin and DMSO were used. Cell survival was determined by adding 10 µL of an MTT solution (5 mg/ml in PBS) to each well and incubating at 37 °C for 3 h. The previous MTT-containing media was then removed, and 100 µL DMSO was pipetted into each well to dissolve the produced formazan crystals. Using an ELISA plate reader (Startfix-2100, Awareness, USA), absorbance was measured at 570 nm. By plotting the percentage of cytotoxicity versus concentration of the produced compounds, the concentrations that inhibit half of the cell population (IC50) were determined. A mean and standard deviation (SD) are used to represent the results. The percentage cell viability was calculated using the formula: Viability=Absorbance \, of \, treated \, cells-background \, absorbance(b)/Absorbance \, of \, untreated \, cells(c)-background \, absorbance(b)×100 where (b) = blank, and (c) = control.

SMILES strings stand for the structures. Converted amounts (≈) assume the structure as drawn. Like-named read-outs stand apart in the source and are kept apart here.

With `CC(=O)Nc1ccc(S(=O)(=O)Nc2ccc3c(c2)OC(N)=C(C#N)C3c2ccc(Cl)cc2)cc1` (centres unmarked) [8b, N-[4-[2-amino-3-cyano-4-(4-chloro-phenyl)-4H-chromene-7-ylsulfamoyl]-phenyl}-acetamide], in the data set on S. aureus ATCC 25923, the “antibacterial effect on S. aureus (MIC results)” value is listed as “robust antibacterial effect”. The “MIC effect on S. aureus” value against S. aureus ATCC 25923 (SAR effect diagram, Table 6) was “Positive”. For the same compound, the MIC in the data set with S. aureus ATCC 25923 (Table 7, read-out: MIC for S. aureus) worked out at 32 µg/mL (≈ 64.7 µM); with S. aureus ATCC 25923 (microdilution method, read-out: Minimum inhibitory concentrations (MIC) S. aureus ATCC 25923), 32 µg/mL (≈ 64.7 µM); in the data set on E. coli ATCC 25922 (Table 6, antibacterial activity against E. coli, read-out: MIC for E. coli ATCC 25922), 64 µg/mL (≈ 129 µM); in the data set with E. coli ATCC 25922 (microdilution method, read-out: Minimum inhibitory concentrations (MIC) E. coli ATCC 25922), 64 µg/mL (≈ 129 µM). Moreover, the “antibacterial effect on E. coli (MIC results)” value with E. coli ATCC 25922 is “robust antibacterial effect”. Besides, in the data set on E. coli ATCC 25922 (SAR effect diagram), the “MIC effect on E. coli” value was “Positive”. In addition, the induced cell death in data set [1] is listed as 56.8%. The compound further had a viability at 24 h in data set [2] of 43.2%. This compound also showed a concentration for half-maximal inhibition (IC50) with fibroblast L929 cells of 90 µg/mL (≈ 182 µM).

For orientation: viability means a per cent measure of how many cells are alive, often set against a control. Read a low viability as a greater loss of cells. What is called IC50 is the midpoint of a concentration-inhibition curve. A high value points to lower potency.
